Data: patent US20260042764A1, “COMPOSITIONS AND METHODS FOR INHIBITION OF KRAS” (TheRas, Inc., priority 2022, published 2026)

Assays:
[1] = biological target: T1, Avi-KRAS G12C (2-169) GTP/RAF1 RBD-3xFLAG (51-131) (Homo sapiens, UniProt P01116, G12C); assay: Raf1-KRAS G12C-GTP disruption HTRF assay (Biological Example 3); format: binding; conditions: KRAS G12C, GTP-loaded
T1 construct: Avi-KRAS G12C (2-169)
Summary of the method: (§1)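 50 nM Avi-KRAS (2-169) GTP/RAF1 RBD complex; 75 nM RBD-Avi; pH 7.5 Tris buffer, 10% DMSO; cpd 30 μM top, 3x, 10 pts; 1 h RT, 700 rpm; HTRF, % of DMSO.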

GP2d cells (KRAS G12D) = assay: Cell-based pERK HTRF assay in GP2d cell (Biological Example 2); conditions: GP2d (KRAS G12D) cells
Summary of the method: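 Phospho-ERK in lysed cells was detected by HTRF using Eu cryptate and d2 antibodies, read between 4 and 24 h at room temperature. Prior to lysis, KRAS G12D GP2d cells, seeded the day before in DMEM with 10% FBS, were exposed to compounds for 60 min. Compounds were tested as 9-point half-log curves from 1 μM or 100 nM top, with 0.25% DMSO.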

[2] = biological target: T2, Avi-KRAS G12D (2-169) GTP/RAF1 RBD-3xFLAG (51-131) (Homo sapiens, UniProt P01116, G12D); assay: Raf1-KRAS G12D-GTP disruption HTRF assay (Biological Example 3); format: binding; conditions: KRAS G12D, GTP-loaded
T2 construct: Avi-KRAS G12D (2-169)
T2 sequence (P01116 2-169 isoform P01116-2 G12D): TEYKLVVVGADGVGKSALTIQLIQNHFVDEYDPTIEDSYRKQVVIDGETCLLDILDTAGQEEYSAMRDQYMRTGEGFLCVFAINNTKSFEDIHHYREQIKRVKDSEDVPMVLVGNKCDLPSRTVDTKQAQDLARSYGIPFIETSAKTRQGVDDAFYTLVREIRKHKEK
Summary of the method: as §1

[3] = biological target: T3, Avi-KRAS WT (2-169) GTP/RAF1 RBD-3xFLAG (51-131) (Homo sapiens, UniProt P01116); assay: Raf1-KRAS WT-GTP disruption HTRF assay (Biological Example 3); format: binding; conditions: KRAS WT, GTP-loaded
T3 construct: Avi-KRAS WT (2-169)
T3 sequence (P01116 2-169 isoform P01116-2): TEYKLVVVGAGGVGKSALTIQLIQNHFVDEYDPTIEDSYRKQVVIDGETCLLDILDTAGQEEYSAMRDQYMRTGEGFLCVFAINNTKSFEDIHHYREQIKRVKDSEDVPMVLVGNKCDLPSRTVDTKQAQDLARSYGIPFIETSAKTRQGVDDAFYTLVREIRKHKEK
Summary of the method: as §1

T1 sequence (P01116 2-169 isoform P01116-2 G12C): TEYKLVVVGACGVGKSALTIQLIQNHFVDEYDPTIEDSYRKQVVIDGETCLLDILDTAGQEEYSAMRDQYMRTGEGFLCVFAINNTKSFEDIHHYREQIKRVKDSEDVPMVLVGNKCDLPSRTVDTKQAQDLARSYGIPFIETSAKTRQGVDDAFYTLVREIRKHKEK

| SMILES | IC50 [1] [nM] | IC50 (GP2d cells (KRAS G12D); GP2d) [nM] | IC50 (GP2d cells (KRAS G12D); GP2d, pERK HTRF, class symbols) [nM] | IC50 [2] [nM] | IC50 [3] [nM] | IC50 (GP2d cells (KRAS G12D); GP2d, pERK HTRF) [nM] | IC50 (GP2d cells (KRAS G12D); pERK HTRF) [nM] | IC50 (GP2d cells (KRAS G12D)) [nM] |
| --- | --- | --- | --- | --- | --- | --- | --- | --- |
| CCN(c1nc(OC[C@@]23CCCN2C[C@H](F)C3)nc2c(F)c(-c3ccc(F)c4sc(N)c(C#N)c34)c(C(F)(F)F)cc12)[C@H]1CC(=O)N(C)C1 (atropisomer, axis not shown) [Compound 614] | 100 to 1000 | < 100 | < 100 | 100 to 1000 | 100 to 1000 |  |  |  |
| CCN(c1nc(OC[C@@]23CCCN2C[C@H](F)C3)nc2c(F)c(-c3ccc(F)c4sc(N)c(C#N)c34)c(C(F)(F)F)cc12)[C@H]1C[C@@H](C)N(C(=O)[C@H]2CCO2)C1 (atropisomer, axis not shown) [Compound 752] | 100 to 1000 | < 100 | < 100 | 100 to 1000 | 100 to 1000 |  |  |  |
| [2H]C1([2H])O[C@@H]2C[C@H]1N(c1nc(OC[C@@]34CCCN3C[C@H](F)C4)nc3c(F)c(-c4ccc(F)c5sc(N)c(C#N)c45)c(C(F)(F)F)cc13)C2 [Compound 371] | 1000 to 10000 | < 100 |  | 100 to 1000 | 100 to 1000 | < 100 |  |  |
| CCN(c1nc(OC[C@@]23CCCN2C[C@H](F)C3)nc2c(F)c(-c3ccc(F)c4sc(N)c(C#N)c34)c(C(F)(F)F)cc12)[C@H]1CCN(C(=O)OC)C1 [Compound 394] | 100 to 1000 | < 100 |  | 100 to 1000 | 100 to 1000 | < 100 |  |  |
| Cc1c(C(=O)N2CCCC2)nn2c1CN(c1nc(OCC34CCCN3CC(F)C4)nc3c(F)c(-c4ccc(F)c5sc(N)c(C#N)c45)c(C(F)(F)F)cc13)CC2 (stereo not shown) [Compound 744] | 100 to 1000 | < 100 | < 100 | 100 to 1000 | 100 to 1000 |  |  |  |
| C[C@@H]1[C@H](N(C)c2nc(OC[C@@]34CCCN3C[C@H](F)C4)nc3c(F)c(-c4ccc(F)c5sc(N)c(C#N)c45)c(C(F)(F)F)cc23)CCN1C(=O)C1CC1 (atropisomer, axis not shown) [Compound 333] | 100 to 1000 | < 100 |  | 100 to 1000 | 100 to 1000 |  | < 100 |  |
| CCN(c1nc(OC[C@@]23CCCN2C[C@H](F)C3)nc2c(F)c(-c3ccc(F)c4sc(N)c(C#N)c34)c(C(F)(F)F)cc12)[C@H]1CC(=O)N(CC(F)F)C1 (atropisomer, axis not shown) [Compound 613] | ≤ 100 | < 100 | < 100 | ≤ 100 | 100 to 1000 |  |  |  |
| CCC(=O)N1CC[C@@H](N(C)c2nc(OC[C@@]34CCCN3C[C@H](F)C4)nc3c(F)c(-c4ccc(F)c5sc(N)c(C#N)c45)c(C(F)(F)F)cc23)[C@H]1C (atropisomer, axis not shown) [Compound 335] | 100 to 1000 | < 100 |  | 100 to 1000 | 100 to 1000 |  | < 100 |  |
| CCN(c1nc(OC[C@@]23CCCN2C[C@H](F)C3)nc2c(F)c(-c3ccc(F)c4sc(N)c(C#N)c34)c(C(F)(F)F)cc12)[C@H]1CCN(C(=O)C2CN(C(C)=O)C2)C1 (atropisomer, axis not shown) [Compound 638] | ≤ 100 | < 100 | < 100 | ≤ 100 | 100 to 1000 |  |  |  |
| CCN(c1nc(OC[C@@H]2C[C@@H](OC)CN2C)nc2c(F)c(-c3ccc(F)c4sc(N)c(C#N)c34)c(C(F)(F)F)cc12)[C@H]1CCN(C(=O)C(C)C)C1 [Compound 706] | 1000 to 10000 | < 100 | < 100 | 100 to 1000 | 1000 to 10000 |  |  |  |
| CCN(c1nc(OC[C@@]23CCCN2C[C@H](F)C3)nc2c(F)c(-c3ccc(F)c4sc(N)c(C#N)c34)c(C(F)(F)F)cc12)[C@@H]1CC(=O)N(C2CC2)C1 (atropisomer, axis not shown) [Compound 703] | 1000 to 10000 |  | < 100 | 1000 to 10000 | 1000 to 10000 |  |  | < 100 |

Next, values leading:

| IC50 [1] [nM] | IC50 (GP2d cells (KRAS G12D); GP2d) [nM] | IC50 (GP2d cells (KRAS G12D); GP2d, pERK HTRF, class symbols) [nM] | IC50 [2] [nM] | IC50 [3] [nM] | IC50 (GP2d cells (KRAS G12D); GP2d, pERK HTRF) [nM] | IC50 (GP2d cells (KRAS G12D); pERK HTRF) [nM] | IC50 (GP2d cells (KRAS G12D)) [nM] | SMILES |
| --- | --- | --- | --- | --- | --- | --- | --- | --- |
| ≤ 100 | < 100 | < 100 | ≤ 100 | 100 to 1000 |  |  |  | CCN(c1nc(OC[C@@]23CCCN2C[C@H](F)C3)nc2c(F)c(-c3ccc(F)c4sc(N)c(C#N)c34)c(C(F)(F)F)cc12)[C@H]1CCN(C(=O)CC(F)F)C1 (atropisomer, axis not shown) [Compound 611] |
| 100 to 1000 | < 100 | < 100 | 100 to 1000 | 100 to 1000 |  |  |  | CCN1C[C@@H](N(C)c2nc(OC[C@@]34CCCN3C[C@H](F)C4)nc3c(F)c(-c4ccc(F)c5sc(N)c(C#N)c45)c(C(F)(F)F)cc23)CC1=O (atropisomer, axis not shown) [Compound 636] |
| 100 to 1000 | < 100 | < 100 | 100 to 1000 | 1000 to 10000 |  |  |  | N#Cc1c(N)sc2c(F)ccc(-c3c(C(F)(F)F)cc4c(N5CCn6nc(C(=O)N7CCOCC7)cc6C5)nc(OCC56CCCN5CC(F)C6)nc4c3F)c12 (stereo not shown) [Compound 646] |
| 100 to 1000 | < 100 | < 100 | 100 to 1000 | 100 to 1000 |  |  |  | CCN(c1nc(OC[C@@]23CCCN2C[C@H](F)C3)nc2c(F)c(-c3ccc(F)c4sc(N)c(C#N)c34)c(C(F)(F)F)cc12)[C@H]1CCN(C(=O)c2ccns2)C1 (atropisomer, axis not shown) [Compound 726] |
| ≤ 100 | < 100 | < 100 | ≤ 100 | 100 to 1000 |  |  |  | CCN(c1nc(OC[C@@]23CCCN2C[C@H](F)C3)nc2c(F)c(-c3ccc(F)c4sc(N)c(C#N)c34)c(C(F)(F)F)cc12)[C@H]1CCN(C(=O)[C@@H]2CCO2)C1 (atropisomer, axis not shown) [Compound 603] |
| 100 to 1000 | < 100 | < 100 | 100 to 1000 | 1000 to 10000 |  |  |  | CC(=O)N1CC[C@H](N(c2nc(OC[C@@]34CCCN3C[C@H](F)C4)nc3c(F)c(-c4ccc(F)c5sc(N)c(C#N)c45)c(C(F)(F)F)cc23)C2CC2)C1 (atropisomer, axis not shown) [Compound 608] |
| 100 to 1000 | < 100 | < 100 | 100 to 1000 | 100 to 1000 |  |  |  | CCN(c1nc(OC[C@@]23CCCN2C[C@H](F)C3)nc2c(F)c(-c3ccc(F)c4sc(N)c(C#N)c34)c(C(F)(F)F)cc12)[C@H]1CCN(C(=O)[C@@H]2C[C@@H]2C)C1 (atropisomer, axis not shown) [Compound 689] |
| ≤ 100 | < 100 | < 100 | ≤ 100 | 100 to 1000 |  |  |  | CCN(c1nc(OC[C@@]23CCCN2C[C@H](F)C3)nc2c(F)c(-c3ccc(F)c4sc(N)c(C#N)c34)c(C(F)(F)F)cc12)[C@H]1CC(=O)N(C2CC2)C1 (atropisomer, axis not shown) [Compound 615] |
| ≤ 100 | < 100 | < 100 | ≤ 100 | 100 to 1000 |  |  |  | CCN(c1nc(OC[C@@]23CCCN2C[C@H](F)C3)nc2c(F)c(-c3ccc(F)c4sc(N)c(C#N)c34)c(C(F)(F)F)cc12)[C@H]1CCN(C(=O)O[C@@H]2CCOC2)C1 (atropisomer, axis not shown) [Compound 683] |
| ≤ 100 | < 100 | < 100 | ≤ 100 | ≤ 100 |  |  |  | CCN(c1nc(OC[C@@]23CCCN2C[C@H](F)C3)nc2c(F)c(-c3ccc(F)c4sc(N)c(C#N)c34)c(C(F)(F)F)cc12)[C@H]1CCN(C(=O)N2CC(OC)C2)C1 (atropisomer, axis not shown) [Compound 607] |
| ≤ 100 | < 100 | < 100 | ≤ 100 | 100 to 1000 |  |  |  | C=C(C)C(=O)N1CC[C@H](N(CC)c2nc(OC[C@@]34CCCN3C[C@H](F)C4)nc3c(F)c(-c4ccc(F)c5sc(N)c(C#N)c45)c(C(F)(F)F)cc23)C1 (atropisomer, axis not shown) [Compound 673] |
| 100 to 1000 | < 100 | < 100 | ≤ 100 | 100 to 1000 |  |  |  | CC(=O)N1CC[C@H](N(CCF)c2nc(OC[C@@]34CCCN3C[C@H](F)C4)nc3c(F)c(-c4ccc(F)c5sc(N)c(C#N)c45)c(C(F)(F)F)cc23)C1 (atropisomer, axis not shown) [Compound 622] |
